Data reported in patent publication US20100056596A1, “RESISTANCE-REPELLENT RETROVIRAL PROTEASE INHIBITORS” (Sequoia Pharmaceuticals, priority 2004, published 2010).
Where two headings read alike, the source gives them in different places.

How the values were obtained:
HIV-1 isolates, Mutant 9 = experiment: In vitro drug sensitivity of HIV-1 laboratory isolates, Mutant 9; type: cell-based
Description: (§1) In Vitro Drug Sensitivity of HIV-1 Laboratory Isolates to PIs
(§2) The sensitivities of HIV-1 isolates against compounds of the invention were determined as previously described with minor modifications (Shiraska et al., Proc. Natl. Acad. Sci. USA, 92, 2398-2402 (1995)).

HIV-1 protease Mutant 8 = HIV-1 protease Mutant 8 (Human immunodeficiency virus type 1, UniProt P04585); experiment: Ki against HIV-1 protease Mutant 8; type: biochemical
HIV-1 protease Mutant 9 = HIV-1 protease Mutant 9 (Human immunodeficiency virus type 1, UniProt P04585); experiment: Ki against HIV-1 protease Mutant 9; type: biochemical
HIV-1 isolates, WT = experiment: In vitro drug sensitivity of HIV-1 laboratory isolates, WT; type: cell-based
Description: as §1, §2

wild type HIV-1 protease = target: T1, wild type HIV-1 protease (Human immunodeficiency virus type 1 group M subtype B, UniProt P04585); experiment: Ki against wild type (WT) HIV-1 protease; type: biochemical
T1 construct: over 45 of the 99 amino acids of the HIV protease monomer

HIV-1 isolates, Mutant 8 = experiment: In vitro drug sensitivity of HIV-1 laboratory isolates, Mutant 8; type: cell-based
Description: as §1, §2

[1] = Human immunodeficiency virus 1, read-out: IC50 Mutant 9
[2] = Human immunodeficiency virus 1, HIV-1 isolate WT
[3] = Human immunodeficiency virus 1, read-out: IC50 Mutant 8
[4] = Mutant 9, read-out: IC50 Mutant 9
[5] = Mutant 8, read-out: IC50 Mutant 8

Row | SMILES | IC50 (HIV-1 isolates, Mutant 9; [1]) [nM] | Ki (HIV-1 protease Mutant 8; HIV-1 protease Mutant 8) [nM] | Ki (HIV-1 protease Mutant 9; HIV-1 protease Mutant 9) [nM] | IC50 (HIV-1 isolates, WT; [2]) [nM] | Ki (wild type HIV-1 protease; wild type HIV-1 protease) [nM] | IC50 (HIV-1 isolates, Mutant 8; [3]) [nM] | Ki (HIV-1 protease Mutant 8; Mutant 8) [nM] | Ki (HIV-1 protease Mutant 9; Mutant 9) [nM] | IC50 (HIV-1 isolates, WT; Human immunodeficiency virus 1) [nM] | Ki (wild type HIV-1 protease; WT) [nM] | IC50 (HIV-1 isolates, Mutant 9; [4]) [nM] | IC50 (HIV-1 isolates, WT; WT) [nM] | IC50 (HIV-1 isolates, Mutant 8; [5]) [nM]
1 | CC(C)CN(CC(O)C(Cc1ccccc1)NC(=O)OC1COC2OCCC12)S(=O)(=O)c1ccc2onc(CNC(=O)c3ccccc3)c2c1 (stereo not drawn) [Compound 221] | 16 | < 0.3 | < 0.1 | 7 | < 0.1 | 14 |  |  |  |  |  |  | 
2 | CC(=O)NCc1noc2ccc(S(=O)(=O)N(CC(C)C)CC(O)C(Cc3ccccc3)NC(=O)OC3COC4OCCC34)cc12 (stereo not drawn) [Compound 214] | 31 | < 0.3 | < 0.1 | 42 | < 0.1 | 28 |  |  |  |  |  |  | 
3 | CC(C)CN(C[C@@H](O)[C@H](Cc1ccccc1)NC(=O)OC1CO[C@H]2OCC[C@@H]12)S(=O)(=O)c1ccc2c(c1)CC(CO)O2 (stereo partly drawn) | 500 |  |  |  |  | 47 | 0.38 | 9 | 5.4 | < 0.1 |  |  | 
4 | CC(C)CN(C[C@@H](O)[C@H](Cc1ccccc1)NC(=O)OC1COC2OCCC12)S(=O)(=O)c1ccc2occ(CN3CCCCC3)c2c1 (stereo partly drawn) [Compound 109] |  |  |  |  |  |  | < 0.3 | 2.8 |  | < 0.1 | > 400 | 2 | 30
5 | CC(C)CN(CC(O)C(Cc1ccccc1)NC(=O)OC1COC2OCCC12)S(=O)(=O)c1ccc2occ(CNS(=O)(=O)C(C)C)c2c1 (stereo not drawn) [Compound 115] | 64 |  |  |  |  | 18 | < 0.3 | 0.27 | 6 | < 0.1 |  |  | 
6 | CC(C)CN(C[C@@H](O)[C@H](Cc1ccccc1)NC(=O)OC1COC2OCCC12)S(=O)(=O)c1ccc2occ(CNC(=O)CSCc3ccccc3)c2c1 (stereo partly drawn) [Compound 119] |  |  |  |  |  |  | < 0.3 | 0.95 |  | 0.12 | 170 | 5 | 42
7 | CC(C)CN(CC(O)C(Cc1ccccc1)NC(=O)OC1COC2OCCC12)S(=O)(=O)c1ccc2onc(CN(C)S(C)(=O)=O)c2c1 (stereo not drawn) [Compound 210] | 300 | < 0.3 | 1.3 | 3 | < 0.1 | 51 |  |  |  |  |  |  | 
8 | CCCC(C)Nc1n[nH]c2ccc(S(=O)(=O)N(CC(C)C)CC(O)C(Cc3ccccc3)NC(=O)OC3COC4OCCC34)cc12 (stereo not drawn) [Compound 303] | 150 |  |  |  |  | 18 | < 0.3 | 0.73 | 10 | < 0.1 |  |  | 
9 | CC(C)CN(C[C@@H](O)[C@H](Cc1ccccc1)NC(=O)OC1COC2OCCC12)S(=O)(=O)c1ccc2occ(CNCC(=O)OC(C)(C)C)c2c1 (stereo partly drawn) [Compound 110] |  |  |  |  |  |  | < 0.3 | 0.32 |  | < 0.1 | 62 | 3.4 | 33
10 | CC(C)CN(CC(O)C(Cc1ccccc1)NC(=O)OC1COC2OCCC12)S(=O)(=O)c1ccc2onc(COC(=O)C(C)C)c2c1 (stereo not drawn) [Compound 215] | 55 | < 0.3 | 0.75 | 11 | < 0.1 | 15 |  |  |  |  |  |  | 
11 | COCc1noc2ccc(S(=O)(=O)N(CC(C)C)CC(O)C(Cc3ccccc3)NC(=O)OC3COC4OCCC34)cc12 (stereo not drawn) [Compound 244] | 305 | < 0.3 | 0.49 | 4.1 | < 0.1 | 40 |  |  |  |  |  |  | 
12 | CC(C)CN(C[C@@H](O)[C@H](Cc1ccccc1)NC(=O)OC1CO[C@H]2OCC[C@@H]12)S(=O)(=O)c1ccc2c(c1)CCO2 (stereo partly drawn) | 157 |  |  |  |  | 13 | < 0.3 | 1.5 | 1 | < 0.1 |  |  | 
13 | CC(C)CN(CC(O)C(Cc1ccccc1)NC(=O)OC1COC2OCCC12)S(=O)(=O)c1ccc2oc(CN)cc2c1 (stereo not drawn) [Compound 105] | 220 |  |  |  |  | 30 | < 0.3 | 1.9 | 7 | < 0.1 |  |  | 
14 | CCOC(=O)NCc1cc2cc(S(=O)(=O)N(CC(C)C)CC(O)C(Cc3ccccc3)NC(=O)OC3COC4OCCC34)ccc2o1 (stereo not drawn) [Compound 121] | > 400 |  |  |  |  | 21 | < 0.3 | 1.6 | 8 | < 0.1 |  |  | 
15 | CCOC(=O)NCc1noc2ccc(S(=O)(=O)N(CC(C)C)CC(O)C(Cc3ccccc3)NC(=O)OC3COC4OCCC34)cc12 (stereo not drawn) [Compound 217] | 20 | < 0.3 | < 0.1 | 2.3 | < 0.1 | 30 |  |  |  |  |  |  | 
16 | CCOC(=O)N(CCOC)Cc1noc2ccc(S(=O)(=O)N(CC(C)C)CC(O)C(Cc3ccccc3)NC(=O)OC3COC4OCCC34)cc12 (stereo not drawn) [Compound 225] | 80 | < 0.3 | 0.44 | 3.6 | < 0.1 | 27 |  |  |  |  |  |  | 
